Consider six compounds from patent US20220000765A1, “METHODS AND COMPOSITION FOR TREATING MICROBIAL INFECTIONS” (UNIVERSITY OF LOUISVILLE RESEARCH FOUNDATION, INC., priority 2018, published 2022).

Like-named read-outs stand apart in the source and are kept apart here.

Data set [1] has as its system HIV-1. Particulars: NPs or eluates from 20% w/w NP-EF composites.
Experimental: TZM-bl cells, obtained from the National Institutes of Health AIDS Research and Reference Reagent Program (ARRRP), are engineered HeLa cells that express CD4, CCR5 and CXCR4 receptors, and were used to assess in vitro HIV-1 infectivity. TZM-bl cells are highly permissive to infection by most HIV-1 and pseudovirus strains, and contain HIV-activated Tat-driven luciferase, allowing for precise quantification of infection. TZM-bl cells were cultured in Dulbecco's Modified Eagle medium (DMEM) containing 10% fetal bovine serum (FBS), 25 mM HEPES, and 50 μg/mL gentamicin (Thermo Fisher). […]
HIV inhibition was determined as a function of reduction in luciferase reporter gene expression after a single round of infection with pseudotyped HIV in TZM-bl cells. The optimal virus dilution (1:16) was established to yield ≥96,800 relative luminescence units (RLUs). […]
After 48 hr, 100 μL of culture medium was removed from each well. Luminescence was measured using the Bright-Glo luciferase assay (Promega Corporation, Madison, Wis.) by adding 100 μL Bright-Glo reagent solution to each well for 5 min and recording relative luminescence units (RLUs, Synergy HT reader, BioTek). […]
Data set [2] concerns HSV-2. The data set can be described thus: In vitro HSV-2 plaque assay in Vero E6 cells (GRFT fibers, Example 5). It is filed as cell-based, HSV-2 (4674). Particulars: eluates of 10% w/w GRFT fibers; 1 hr prior to infection. As to the method:
To conduct HSV-2 plaque assays, Vero E6 cells and HSV-2 (4674) were kindly provided by Dr. Kenneth Palmer from the University of Louisville.
HSV-2 plaque assays were conducted to evaluate the in vitro efficacy of 10% w/w GRFT fibers against HSV-2 infection as previously described. Briefly, Vero E6 cells were seeded at 600,000 cells/well in a 6-well flat bottom plate (50% confluence) and grown for 24 hr to confluence. Prior to cell infection, 10% w/w GRFT fibers (30 mg) were dissolved in 20 mL complete plating media (1% FBS MEM). Once the cells were fully confluent, the growth media was removed and replaced with 2 mL of GRFT fiber eluate dilutions, followed by HSV-2 infection (3,000 PFU per well) 1 hr later. Free GRFT (2,000 μg/mL), corresponding to the concentration necessary to provide complete HSV-2 inhibition, was used as a positive control for inhibition, in addition to untreated/uninfected cells. Untreated/infected cells, were used as a negative control of inhibition.
Subsequent to HSV-2 infection, plates were incubated for 48 hr at 37° C., all media was removed, and cells were fixed with 1.5 mL methanol for 10 min. […] Finally, plates were washed with Milli-Q water, and plaques were counted after drying. […] Samples were analyzed in triplicate, and GraphPad Prism software was used to determine and compare the IC50 values of GRFT fibers to free GRFT.

The test system of data set [3] is HSV-2. The data set can be described thus: In vivo HSV-2 efficacy, murine model of lethal HSV-2 infection (GRFT NPs and NP-EFs, Example 4). More on the design: species or system BALB/c mice. As to the method: All in vivo experiments were approved by the University of Louisville's Institutional Animal Care and Use Committee (IACUC-17135) prior to testing. […] For these studies, mice were subcutaneously injected with 3 mg Depo-Provera (Revive, Madison, N.J.) 5 days prior to vehicle administration to induce the diestrous stage of their cycle. All materials administered to mice were UV-sterilized for 15 s prior to use. […] Untreated/uninfected mice and mice treated with 20 μg free GRFT (20 μL of 1,000 μg/mL) served as negative controls of infection, while untreated/infected mice served as a positive control for infection. Blank mPEG-PLGA nanoparticles were administered as an additional control group in efficacy studies.

Data set [4] has as its system HIV-1. Particulars: eluates of 1% w/w GRFT fibers.
Text: TZM-bl cells, obtained from the National Institutes of Health (NIH) AIDS Research and Reference Reagent Program (ARRRP), were used to assess in vitro HIV-1 infectivity. TZM-bl cells are engineered HeLa cells that express CD4, CCR5 and CXCR4 receptors and contain a Tat-driven luciferase gene, which is activated by HIV-1 infection and permits sensitive and accurate measurements of infection. TZM-bl cells are highly permissive to infection by most strains of HIV and molecularly cloned Env-pseudotyped viruses. TZM-bl cells were cultured in DMEM containing 10% FBS, 25 mM HEPES, and 50 μg/mL gentamicin. […]
The antiviral activity of GRFT fibers against HIV-1 was measured using an in vitro HIV-1 pseudovirus inhibition assay. As previously described, HIV-1 inhibition was determined as a function of reduction in luciferase reporter gene expression after a single round of infection in TZM-bl cells. The optimal virus dilution was established prior to the experiments to yield 100,000 relative luminescence units (RLUs). […]
After 48 hr, 100 μL, culture medium was carefully removed from each well. Luminescence was measured using the Bright-Glo luciferase assay system (Promega Corporation, Madison, Wis.) by adding 100 μL, Bright-Glo reagent solution to each well for 5 min. Plates were read via luminescence by the Synergy HT reader (BioTek). […]
The subject of data set [5] is HSV-2. The data set can be described thus: In vivo efficacy against a lethal dose of HSV-2 infection (GRFT fibers, Example 5). Also noted: species or system BALB/c mice. The protocol:
All in vivo experimental procedures were approved by the University of Louisville's Institutional Animal Care and Use Committee (IACUC 17135) prior to testing. All animal studies were conducted using 5-week-old female BALB/c mice (Jackson Laboratory, Bar Harbor, Me.) to evaluate the efficacy and safety of GRFT fibers. For efficacy studies, mice were administered either blank or GRFT fibers (5 mg) that were UV-sterilized for 15 s. Mice were subcutaneously injected with 3 mg Depo-Provera (Revive, Madison, N.J.) to induce the diestrous stage of their cycle, 5 days prior to fiber administration.
To determine the efficacy of GRFT fibers against HSV-2 infection, mice were administered a single dose of either GRFT PEO, PVA, or PVP fibers, or control groups (n=20). Twenty-four hours after fiber administration, mice were challenged with HSV-2 (20 μL, LD90 5,000 PFU). Untreated/infected mice were used as positive controls for infection, while untreated/uninfected mice and infected mice treated with free GRFT (20 μL, of 1,000 μg/mL, 20 μg GRFT) served as negative controls. […] Blank PEO fibers were administered as an additional control group in efficacy studies. Mice were monitored daily for 14 days after HSV-2 challenge using an established 4-point scale to monitor the progression of viral infection. Each day, mice were weighed and examined for signs of neurological and epithelial damage. […]

In data set [6] the test system is HIV-1. Particulars: for interaction with Q-GRFT against HIV-1: in free and encapsulated forms.
For data set [7] the following is noted: Met78Gln variant versus wild-type GRFT; cited from earlier work.
In the next data set the test system is Gardnerella vaginalis. The data set can be described thus: Probiotic - Gv liquid co-culture. Particulars: Example 2; free probiotic (10e7 or 10e8), prebiotic and Gv; plated after 4 and 24 hours. It is filed as cell-based. As to the method:
Bacteria loading, viability, and stability were tested by CFU count, BacLight live/dead assay, and fluorescence microscopy. La viability and stability were evaluated at −20° C., 4° C., and 25° C. by counting colony forming units (CFUs). To determine the ability of probiotic EFs to decrease Gv viability, a La EF-Gv co-culture was assessed.
Bacteria were co-cultured in media using the following experimental design (FIG. 16A). The probiotic (L. acidophilus (La) or L. crispatus (Lcr)), the prebiotic, and the Gv were combined for bacterial cell co-culture experiments. Each tube was serially diluted and plated after 4 (FIG. 16B) and 24 (FIG. 16C) hours growth.

On to Griffithsin [free GRFT], for which the “IC50 against HIV-1” value with HIV-1 [1] (administered to TZM-bl cells 1 hr prior to infection) was found to be 0.0215 ± 0.0053 µg/mL; with HIV-1 [1] (administered to TZM-bl cells 24 hr prior to infection) it was 0.0208 ± 0.0067 µg/mL. In addition, in the data set with HSV-2 [2], the “1 Hr HSV-2 IC50” value was 25.5 ± 0.5 µg/mL. For the same compound, the survivability in the data set on HSV-2 [3] (intravaginal, single HSV-2 challenge LD90 5,000 PFU 24 hr later, 14 d post-infection, n=20) came to 85%. For the same compound, the “onset of symptoms and progression of infection” value with HSV-2 [3] (treated mice that became symptomatic, relative to untreated/infected control group) was “delayed onset of symptoms and a more gradual progression of infection”. Besides, the “1 Hr HIV-1 IC50” value in the data set on HIV-1 [4] (1 hr prior to infection) is 0.0241 ± 0.0156 µg/mL. The “24 Hr HIV-1 IC50” value in the data set on HIV-1 [4] (24 hr prior to infection) is 0.0228 ± 0.0122 µg/mL. Further, in the data set on HSV-2 [5] (mice that exhibited symptoms, relative to untreated/infected mice), the progression of infection result is recorded as “decreased progression of infection”. In addition, the “infected mice whose initial symptoms disappeared near the end of the study” value in the data set on HSV-2 [5] (of 20 mice) is 1 of 20.

As for `C[C@H](Cn1cnc2c(N)ncnc21)OCP(=O)(O)O` [TFV, Tenofovir], the “interaction with Q-GRFT against HIV-1” value with HIV-1 [6] is recorded as “synergistic interactions”.

With “free Q-GRFT: oxidation-resistant variant of GRFT in which the Met at position 78 was replaced by a Gln”, the “fold lowering of IC50 of free Q-GRFT” value in the data set with HIV-1 [6] (in combination with the free ARVs (TFV, RAL, DAP)) was “up to 6 fold”. In addition, the susceptibility to oxidation result in data set [7] is recorded as “no susceptibility to oxidation”.

In the case of `Cc1cc(C)c(Nc2ccnc(Nc3ccc(C#N)cc3)n2)c(C)c1` [DAP, Dapivirine], in the data set on HIV-1 [6], the “interaction with Q-GRFT against HIV-1” value is recorded as “synergistic interactions”.

On to `Cc1nnc(C(=O)NC(C)(C)c2nc(C(=O)NCc3ccc(F)cc3)c(O)c(=O)n2C)o1` [RAL, Raltegravir], for which, in the data set on HIV-1 [6], the “interaction with Q-GRFT against HIV-1” value is “synergistic interactions”.

As to inulin, the “effect on Gv growth in probiotic-prebiotic-Gv co-culture” value in the data set on Gardnerella vaginalis is recorded as “increase of Gv growth”.
